The values below come from ChEMBL document CHEMBL1149418, “Intermolecular interactions in the crystal structures of potential HIV-1 integrase inhibitors” (Bioorg Med Chem Lett, 2006).

Molecules are shown by their SMILES. Some results are limits rather than exact numbers.

Sequence of Human immunodeficiency virus type 1 integrase (Q7ZJM1 whole entry): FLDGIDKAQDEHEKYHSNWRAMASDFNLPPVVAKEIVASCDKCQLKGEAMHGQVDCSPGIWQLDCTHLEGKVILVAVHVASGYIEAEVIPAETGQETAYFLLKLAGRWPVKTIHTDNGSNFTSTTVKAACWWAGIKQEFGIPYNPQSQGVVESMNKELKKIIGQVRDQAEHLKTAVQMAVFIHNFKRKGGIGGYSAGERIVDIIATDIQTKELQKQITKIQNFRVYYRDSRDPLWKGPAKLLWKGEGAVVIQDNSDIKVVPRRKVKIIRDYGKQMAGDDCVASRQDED

The experiment addresses Human immunodeficiency virus type 1 integrase (Human immunodeficiency virus 1, UniProt Q7ZJM1). Put plainly: Antiviral activity against HIV1 integrase.
With `COC(Nc1cc(Cl)c([N+](=O)[O-])cc1Cl)c1ccc2cccc(O)c2n1` (centres undefined), 230 µM corresponded to half-maximal inhibition (IC50).

In the case of `Oc1cccc2ccc(/C=C/c3cccc(Cl)c3)nc12`, the IC50 was 230 µM.

Compound `Cc1ccc2c(N=O)ccc(O)c2n1` displayed an IC50 of over 333 µM.

On to `O=C(O)c1ccc2ccc(/C=C/c3cccc(Cl)c3)nc2c1`, for which the IC50 came out at 230 µM.
